Source: patent publication US8492589B2, “Alkynyl phenyl derivative compounds for treating ophthalmic diseases and disorders” (Acucela Inc., priority 2007, dated 2013)
Like-named read-outs stand apart in the source and are kept apart here.

Biological target: T1, isomerase (Mus musculus, UniProt Q91ZQ5)
T1 construct: The recovery of 11-cis-retinal after bleaching can be used to estimate the activity of isomerase in vivo; from tissue; host or cells: eyes of living CD-1 and Balb/c male mice
T1 sequence (Q91ZQ5 1-533): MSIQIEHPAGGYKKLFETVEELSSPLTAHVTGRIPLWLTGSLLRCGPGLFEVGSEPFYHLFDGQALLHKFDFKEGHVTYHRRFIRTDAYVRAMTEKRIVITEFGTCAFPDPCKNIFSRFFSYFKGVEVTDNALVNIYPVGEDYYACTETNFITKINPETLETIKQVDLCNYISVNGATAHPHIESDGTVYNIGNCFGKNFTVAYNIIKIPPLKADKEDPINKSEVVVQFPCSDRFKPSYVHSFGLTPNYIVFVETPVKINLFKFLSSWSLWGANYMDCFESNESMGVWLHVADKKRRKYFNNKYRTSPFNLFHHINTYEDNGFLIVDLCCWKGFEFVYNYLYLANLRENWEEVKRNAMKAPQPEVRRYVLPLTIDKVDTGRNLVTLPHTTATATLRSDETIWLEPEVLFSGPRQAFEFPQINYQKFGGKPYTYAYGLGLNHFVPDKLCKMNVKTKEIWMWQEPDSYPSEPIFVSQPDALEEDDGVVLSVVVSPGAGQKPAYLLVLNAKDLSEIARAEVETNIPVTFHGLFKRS
Assay: In vivo murine isomerase assay (recovery of 11-cis-retinal after photobleaching)
Design: species or system mice
Details: for ED50 / inhibition in vivo at 1 mg/kg / inhibition in vivo at 5 mg/kg: mouse; for ED50: po, read-out: ED50 (dose of compound that gives 50% inhibition of 11-cis retinal (oxime) recovery), estimated, male Balb/c mice, HCl salts dosed orally in mg/kg; for ED50 / inhibition of isomerase activity in vivo (figure legend): photobleached 4 hours after dosing; for inhibition of isomerase activity in vivo (figure legend): oral dose response, Balb/c mice; for inhibition in vivo at 1 mg/kg / inhibition in vivo at 5 mg/kg: read-out: % Inibition
Experimental: The capability of alkynyl phenyl-linked amine derivatives to inhibit isomerase is determined by an in vivo murine isomerase assay. Brief exposure of the eye to intense light (“photobleaching” of the visual pigment or simply “bleaching”) is known to photo-isomerize almost all 11-cis-retinal in the retina. The recovery of 11-cis-retinal after bleaching can be used to estimate the activity of isomerase in vivo. Delayed recovery, as represented by lower 11-cis-retinal oxime levels, indicates inhibition of isomerization reaction. Procedures were performed essentially as described by Golczak et al., Proc. Natl. Acad. Sci. […] See also Deigner et al., Science, 244: 968-71 (1989); […] Parish, et al., Proc. Natl. Acad. Sci. USA, 14609-13 (1998); […] Six-week old dark-adapted CD-1 (albino) male mice were orally gavaged with compound (0.03-3 mg/kg) dissolved in 100 μl corn oil containing 10% ethanol (five animals per group). […] After 2-24 hours in the dark, the mice were exposed to photobleaching of 5,000 lux of white light for 10 minutes. The mice were allowed to recover 2 hours in the dark. The animals were then sacrificed by carbon dioxide inhalation. Retinoids were extracted from the eye and the regeneration of 11-cis-retinal was assessed at various time intervals. All steps were performed in darkness with minimal redlight illumination (low light darkroom lights and […] flashlights for spot illumination as needed) (see, e.g., Maeda et al., J. Neurochem 85:944-956, 2003; Van Hooser et al., J Biol Chem 277:19173-82, 2002). After the mice were sacrificed, the eyes were immediately removed and placed in liquid nitrogen for storage. The eyes were placed in 500 μL of bis-tris propane buffer (10 mM, pH 7.3) and 20 μL of 0.8M hydroxile amine (pH-7.3). The eyes were cut up into small pieces with small iris scissors and then thoroughly homogenized at 30000 rpm with a mechanical homogenizer (Polytron PT 1300 D) in the tube until no visible tissue remained. 500 μL of methanol and 500 μL of heptane were added to each tube. The tubes were attached to a vortexer so that the contents were mixed thoroughly for 15 minutes in room temperature. […] The samples were analyzed on an Agilent 1100 HPLC system with normal phase column: SILICA (Beckman Coutlier, dp 5 μm, […]). The running method has a flow rate of 1.5 ml/min; solvent components are 15% solvent 1 (1% isopropanol in ethyl acetate), and 85% solvent 2 (100% hexanes). Loading volume for each sample is 100 μl; detection wavelength is 360 nm. The area under the curve for 11-cis retinal oxime was calculated by Agilent Chemstation software and was recorded manually. Data processing was performed using Prizm software. Positive control mice (no compound administered) were sacrificed fully dark-adapted and the eye retinoids analyzed. Light (bleached) control mice (no compound administered) were sacrificed and retinoids isolated and analyzed immediately after light treatment. […] Animals that received Compound 19 HCl were orally dosed with 0.01 and 1 mg/kg of compound in sterile water as solution, and photobleached 4 hours after dosing. Recovery and retinoid analysis were performed as described above. Dark control mice were vehicle-only treated, sacrificed fully dark adapted without light treatment, and analyzed. […] A time course study was performed to determine the isomerase inhibitory activity of Compounds 2, 18 and 19. Male Balb/c mice (4/group) received 3 mg Compound 2-HCl, Compound 18-HCl or Compound 19-HCl (in water) per kg bodyweight orally, by gavage. The animals were then “photo-bleached” (5000 Lux white light for 10 minutes) at 2, 4, 8, 16 and 24 hours after dosing, and returned to darkness to allow recovery of the 11-cis-retinal content of the eyes. Mice were sacrificed 2 hours after bleaching, eyes were enucleated, and retinoid content was analyzed by HPLC. A single dose study of the compound of Example 36 (Compound 36) was performed, at 1 mg/kg and 5 mg/kg oral dosing, 2, 4, 6, and 24 hours post bleaching. […]

Row | SMILES | ED50 [mg/kg] | inhibition of isomerase activity in vivo (figure legend) | inhibition in vivo at 1 mg/kg (4 h) [%] | inhibition in vivo at 1 mg/kg (24 h) [%] | inhibition in vivo at 5 mg/kg (4 h) [%] | inhibition in vivo at 5 mg/kg (24 h) [%]
1 | CCCC(O)(C#Cc1cccc([C@H](O)CCN)c1)CCC [Compound 100, (R)-4-((3-(3-Amino-1-Hydroxypropyl)Phenyl)Ethynyl)Heptan-4-ol] | 0.2 | concentration-dependent inhibition |  |  |  | 
2 | CCCC(O)(C#Cc1cccc([C@@H](O)CCN)c1)CCC [Compound 101, (S)-4-((3-(3-Amino-1-Hydroxypropyl)Phenyl)Ethynyl)Heptan-4-ol] | 0.38 | concentration-dependent inhibition |  |  |  | 
3 | CCC(O)(C#Cc1cccc(CCCN)c1)CC [Example 1, 1-(3-(3-Aminopropyl)phenyl)-3-ethylpent-1-yn-3-ol] |  |  | 3 | 0 |  | 
4 | CCCC(O)(C#Cc1cccc(CCCN)c1)CCC [Example 2, 4-((3-(3-Aminopropyl)phenyl)ethynyl)heptan-4-ol] | 0.69 | concentration-dependent inhibition |  |  |  | 
5 | CCCC(C#Cc1cccc(CCCN)c1)(CCC)OC [Example 4, 3-(3-(3-Methoxy-3-propylhex-1-ynyl)phenyl)propan-1-amine] |  |  | 21 | 0 | 95 | 0
6 | CC(C)(O)C#Cc1cccc(CCCN)c1 [Example 7, 4-(3-(3-Aminopropyl)phenyl)-2-methylbut-3-yn-2-ol] |  |  |  |  | 49 | 0
7 | CCCC(O)C#Cc1cccc(CCCN)c1 (stereo not drawn) [Example 8, 1-(3-(3-Aminopropyl)phenyl)hex-1-yn-3-ol] |  |  |  |  | 0 | 0
8 | NCCCc1cccc(C#CC2(O)CCCCC2)c1 [Example 11, 1-((3-(3-Aminopropyl)phenyl)ethynyl)cyclohexanol] |  |  | 0 | 0 | 17 | 0
9 | CCCC(O)(C#Cc1cccc(OCCN)c1)CCC [Example 18, 4-((3-(2-Aminoethoxy)phenyl)ethynyl)heptan-4-ol] | 1.73 | concentration-dependent inhibition |  |  |  | 
10 | CCCC(O)(C#Cc1cccc(C(O)CCN)c1)CCC (stereo not drawn) [Example 19, 4-((3-(3-Amino-1-hydroxypropyl)phenyl)ethynyl)heptan-4-ol] | 0.33 | concentration-dependent inhibition |  |  |  | 
11 | NCCCc1cccc(C#CC2(O)CCCC2)c1 [Example 24, 1-((3-(3-Aminopropyl)phenyl)ethynyl)cyclopentanol] |  |  | 0 | 0 | 27 | 0
12 | CC(C)(C)C(C)(O)C#Cc1cccc(CCCN)c1 (stereo not drawn) [Example 25, 1-(3-(3-Aminopropyl)phenyl)-3,4,4-trimethylpent-1-yn-3-ol] |  |  | 1 | 0 |  | 
13 | NCCCc1cccc(C#C[C@@H](O)c2ccccc2)c1 [Example 26, (S)-3-(3-(3-Aminopropyl)phenyl)-1-phenylprop-2-yn-1-ol] |  |  | 18 | 0 |  | 
14 | CCC(O)(C#Cc1cccc(OCCN)c1)CC [Example 27, 1-(3-(2-Aminoethoxy)phenyl)-3-ethylpent-1-yn-3-ol] |  |  | 7 | 6 | 65 | 0
15 | CC(C)C(O)(C#Cc1cccc(OCCN)c1)C(C)C [Example 28, 1-(3-(2-Aminoethoxy)phenyl)-3-isopropyl-4-methylpent-1-yn-3-ol] |  |  | 27 | 0 |  | 
16 | NCCOc1cccc(C#CC2(O)CCCC2)c1 [Example 31, 1-((3-(2-Aminoethoxy)phenyl)ethynyl)cyclopentanol] |  |  | 18 | 0 |  | 
17 | CC(C)C(O)(C#Cc1cccc(CCCN)c1)C(C)C [Example 32, 1-(3-(3-Aminopropyl)phenyl)-3-isopropyl-4-methylpent-1-yn-3-ol] |  |  | 75 | 14 |  | 
